Test results as given in ChEMBL document CHEMBL1151256, “New alkaloids and a tetraflavonoid from Cephalotaxus wilsoniana” (J Nat Prod, 2004).
Values after ≈ are worked out from the molar mass of the structure shown.

Legend:
[1] = Cytotoxicity against human Hep3B cells after 6 days by MTT assay; format: functional, cell-based, Hep 3B2; conditions: 144 h
HepG2 = experiment: Cytotoxicity against human HepG2 cells after 6 days by MTT assay; format: functional, cell-based; conditions: HepG2, 144 h
MCF7 = experiment: Cytotoxicity against human MCF7 cells after 6 days by MTT assay; format: functional, cell-based; conditions: MCF7, 144 h
HT-29 = experiment: Cytotoxicity against human HT-29 cells after 6 days by MTT assay; format: functional, cell-based; conditions: HT-29, 144 h

SMILES: COc1cc2c(cc1OC)C13C[C@@H](OC)C=C[C@@]14O[C@H]4C(=O)N3CCC2 (some centres undefined)
- IC50 [1]: 52 µg/mL (≈ 145 µM)
- IC50 (HepG2): 52 µg/mL (≈ 145 µM)
- IC50 (MCF7): 42 µg/mL (≈ 118 µM)
- IC50 (HT-29): 24.4 µg/mL (≈ 68.3 µM)
